Reference: patent publication US5321030A, “Creatine analogs having antiviral activity” (priority 1991, dated 1994)
In brackets after ≈: the same amount, converted by molar mass. Several values for one entry are separate records, joined by “and”; a condition that tells them apart may be missing. Identical values can stand only once. Like-named read-outs stand apart in the source and are kept apart here.

Assays:
[1] = tested on: Parainfluenza Type 3 (PIV-3), strain C243; assay: CPE-reduction assay, parainfluenza type 3 in HEp-2 cells; type: cell-based; conditions: 10 mg/ml
HCMV, strain AD-169 = assay: Plaque reduction assay, HCMV strain AD-169; type: cell-based, Human Cytomegalovirus; design: TI50 (CD50 ÷ ED50): unit not given here; conditions: for EC50: read-out: ED50 (the source's name)
[2] = Cytotoxicity in plaque reduction assay, MRC-5 cells; type: cell-based, human; conditions: human, mrc-5 cells, read-out: CD50 (the source's name)
Experimental: (§1) Cytotoxicity was determined by examination of cells (located away from plaques) in infected wells which had been treated with drug.

MRC-5 cells = assay: as above; type: cell-based, human; conditions: HCMV experiments, 8 days of exposure
Experimental: as §1

[3] = Cytotoxicity in plaque reduction assay, Hs68 cells; type: cell-based; conditions: human, Table 5, read-out: CD50 (the source's name)
Experimental: as §1

[4] = tested on: Herpes Simplex Virus, Type 1, strain BW10168 (TK-); assay: microbe, parasite or virus in culture; type: cell-based; design: TI50 (CD50 ÷ ED50): unit not given beside the values; conditions: for Average CPE: virus controls 4.0; for EC50: Human alphaherpesvirus 1, Vero
creatine kinase = creatine kinase (Oryctolagus cuniculus, UniProt P00563); assay: Phosphorylation by creatine kinase, coupled assay with pyruvate kinase and LDH; type: biochemical; conditions: 40 mM
Sequence of creatine kinase (P00563 whole entry): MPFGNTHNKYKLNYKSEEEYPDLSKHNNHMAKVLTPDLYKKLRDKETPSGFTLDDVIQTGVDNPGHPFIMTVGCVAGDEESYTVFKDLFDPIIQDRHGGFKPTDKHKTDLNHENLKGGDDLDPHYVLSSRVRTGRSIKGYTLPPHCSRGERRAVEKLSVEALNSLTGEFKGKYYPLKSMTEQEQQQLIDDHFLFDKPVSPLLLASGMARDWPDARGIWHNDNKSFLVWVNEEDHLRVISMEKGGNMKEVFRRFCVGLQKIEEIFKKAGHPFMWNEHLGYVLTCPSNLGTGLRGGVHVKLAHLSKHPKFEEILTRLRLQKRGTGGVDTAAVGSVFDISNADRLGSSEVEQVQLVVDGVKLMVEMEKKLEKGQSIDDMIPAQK
Experimental: Compound 5/6 (AM 361), where R=CH3, was prepared as described above and assayed for phosphorylation by creatine kinase in a coupled assay with pyruvate kinase and lactate dehydrogenase (LDH) as described (Bergmeyer, H. U., ed. (1974), In: Methods of Enzymatic Analysis, Second English Edition, Volume 4, (Verlag Chemie Weinheim and Academic Press, Inc.: New York, London) pp. 1772-1779). Each compound listed in Table 11 below was tested at a concentration of 40 mM. Compound 5/6 (AM 361) was slowly phosphorylated.

Vero cells = conditions: monkey
in vitro = conditions: guinea pig, gpe cells
[5] = newly hatched chicks, 1% in diet, with antibiotics; cited from earlier work
HSV-2 = assay: Cytopathic effect (CPE) assay, HSV-2

NC1=NCCN1CC(=O)O [cyclocreatine, 1-carboxymethyl-2-iminoimidazolidine]
Average CPE [1]: 0.5 | TI50 (CD50 ÷ ED50) (HCMV, strain AD-169; Hs-68 cells, Table 5): greater than 6.2 | TI50 (CD50 ÷ ED50) (HCMV, strain AD-169; Hs-68 cells, Table 5, listed as AM-285): > 6.2 | # Plaques (HCMV, strain AD-169; Hs-68 cells, AM-285 62.5 μg/ml, virus control 74.2 ± 8.6): 71 | # Plaques (HCMV, strain AD-169; Hs-68 cells, AM-285 125 μg/ml, virus control 74.2 ± 8.6): 65 | # Plaques (HCMV, strain AD-169; Hs-68 cells, AM-285 260 μg/ml, virus control 74.2 ± 8.6): 87 | # Plaques (HCMV, strain AD-169; Hs-68 cells, AM-285 500 μg/ml, virus control 74.2 ± 8.6): 41 | # Plaques (HCMV, strain AD-169; Hs-68 cells, AM-285 1000 μg/ml, virus control 74.2 ± 8.6): 19.5 | # Plaques (HCMV, strain AD-169; Hs-68 cells, AM-285 2000 μg/ml, virus control 74.2 ± 8.6): 1.5 | # Plaques (HCMV, strain AD-169; Hs-68 cells, AM-285 4000 μg/ml, virus control 74.2 ± 8.6): 0 | inhibition at 260 µg/mL (HCMV, strain AD-169; Human betaherpesvirus 5, AD169, Hs68, read-out: % Reduction): 0% | EC50 (HCMV, strain AD-169; Human betaherpesvirus 5, AD169, Hs68, Hs-68 cells, Table 5): 647 mg/L (≈ 4.52 mM) | inhibition at 62.5 µg/mL (HCMV, strain AD-169; Human betaherpesvirus 5, AD169, Hs68, Hs-68 cells, AM-285 62.5 μg/ml): 0% | inhibition at 125 µg/mL (HCMV, strain AD-169; Human betaherpesvirus 5, AD169, Hs68, Hs-68 cells, AM-285 125 μg/ml): 0% | inhibition at 500 µg/mL (HCMV, strain AD-169; Human betaherpesvirus 5, AD169, Hs68, Hs-68 cells, AM-285 500 μg/ml): 45% | inhibition at 1000 µg/mL (HCMV, strain AD-169; Human betaherpesvirus 5, AD169, Hs68, Hs-68 cells, AM-285 1000 μg/ml): 74% | inhibition at 2000 µg/mL (HCMV, strain AD-169; Human betaherpesvirus 5, AD169, Hs68, Hs-68 cells, AM-285 2000 μg/ml): 98% | inhibition at 4000 µg/mL (HCMV, strain AD-169; Human betaherpesvirus 5, AD169, Hs68, Hs-68 cells, AM-285 4000 μg/ml): 100% | EC50 (HCMV, strain AD-169; Human betaherpesvirus 5, AD169, MRC5, MRC-5 cells, Table 4): 610 mg/L (≈ 4.26 mM) | inhibition at 62.5 µg/mL (HCMV, strain AD-169; Human betaherpesvirus 5, AD169, MRC5, MRC-5 cells, AM 285 62.5 μg/ml): 0% | inhibition at 125 µg/mL (HCMV, strain AD-169; Human betaherpesvirus 5, AD169, MRC5, MRC-5 cells, AM 285 125 μg/ml): 0% | inhibition at 250 µg/mL (HCMV, strain AD-169; Human betaherpesvirus 5, AD169, MRC5, MRC-5 cells, AM 285 250 μg/ml): 0% | inhibition at 500 µg/mL (HCMV, strain AD-169; Human betaherpesvirus 5, AD169, MRC5, MRC-5 cells, AM 285 500 μg/ml): 54% | inhibition at 1000 µg/mL (HCMV, strain AD-169; Human betaherpesvirus 5, AD169, MRC5, MRC-5 cells, AM 285 1000 μg/ml): 75% | inhibition at 2000 µg/mL (HCMV, strain AD-169; Human betaherpesvirus 5, AD169, MRC5, MRC-5 cells, AM 285 2000 μg/ml): 100% | inhibition at 4000 µg/mL (HCMV, strain AD-169; Human betaherpesvirus 5, AD169, MRC5, MRC-5 cells, AM 285 4000 μg/ml): 100% | TI50 (CD50 ÷ ED50) (HCMV, strain AD-169; MRC-5 cells, Table 4): greater than 6.5 | TI50 (CD50 ÷ ED50) (HCMV, strain AD-169; MRC-5 cells, Table 4, listed as AM 285): > 6.5 | # Plaques (HCMV, strain AD-169; MRC-5 cells, AM 285 62.5 μg/ml, virus control 26.4 ± 5.2): 25 | # Plaques (HCMV, strain AD-169; MRC-5 cells, AM 285 125 μg/ml, virus control 26.4 ± 5.2): 26 | # Plaques (HCMV, strain AD-169; MRC-5 cells, AM 285 250 μg/ml, virus control 26.4 ± 5.2): 23 | # Plaques (HCMV, strain AD-169; MRC-5 cells, AM 285 500 μg/ml, virus control 26.4 ± 5.2): 12 | # Plaques (HCMV, strain AD-169; MRC-5 cells, AM 285 1000 μg/ml, virus control 26.4 ± 5.2): 6 | # Plaques (HCMV, strain AD-169; MRC-5 cells, AM 285 2000 μg/ml, virus control 26.4 ± 5.2): 0 | # Plaques (HCMV, strain AD-169; MRC-5 cells, AM 285 4000 μg/ml, virus control 26.4 ± 5.2): 0 | CC50 ([2]; Table 4): > 4000 mg/L | CC50 ([2]; Table 6): > 10000 mg/L | CC50 ([2]; Table 7): > 10000 mg/L | CC50 ([2]; Table 9A): > 4000 mg/L | visible cytotoxicity (MRC-5 cells): no visible signs of cytotoxicity | CC50 [3]: > 4000 mg/L | Average CPE ([4]; AM-285 62.5 μg/ml): 3.2 | Average CPE ([4]; AM-285 125 μg/ml): 3.5 | Average CPE ([4]; AM-285 260 μg/ml): 3.2 | Average CPE ([4]; AM-285 500 μg/ml): 1.7 | Average CPE ([4]; AM-285 1000 μg/ml): 1.8 | Average CPE ([4]; AM-285 2000 μg/ml): 2.0 | Average CPE ([4]; AM-285 4000 μg/ml): 0.7 | EC50 ([4]; read-out: ED50, Vero cells, Table 8): 384 mg/L (≈ 2.69 mM) | EC50 ([4]; read-out: ED50, as stated in text): ~900 µg/mL and ~6.3 mM | TI50 (CD50 ÷ ED50) ([4]; Vero cells, Table 8): > 4.5 | % Rate of Creatine (creatine kinase): 46% | Δ in Absorbance/min (creatine kinase): 0.54 | CC50 (Vero cells): > 28 mM | CD50 (Vero cells): greater than 4 mg/ml | CC50 (in vitro): > 10000 mg/L | tolerance of dietary cyclocreatine [5]: without significant mortality | EC50 (HSV-2; Human alphaherpesvirus 2, Vero, read-out: ED50): 1690 µg/mL and 11 mM | EC (60 or 70) (HSV-2; Human alphaherpesvirus 2, Vero, read-out: concentration required to inhibit cytopathogenicity by 60% or 70%): 35000 µM | effect on cytopathic effect (HSV-2; contact-inhibited A459 cells): inhibited the cytopathic effect | effect on cytopathic effect (HSV-2; contact-inhibited BalbC/3T3 cells, FIG. 4A): inhibited the cytopathic effect | effect on cytopathic effect (HSV-2; serum-starved DU145 cells, FIG. 6A): inhibited the cytopathic effect | TI (HSV-2; serum-starved Vero cells): > 5.5 | effect on cytopathic effect (HSV-2; serum-starved Vero cells, FIG. 2A): inhibits the cytopathic effect
